Key:
[1] = target: BB7 (RNA-dependent RNA polymerase hepatitis C virus protein sequence derived from HCV replicon) (Hepatitis C virus genotype 1b, UniProt Q9WMX2); assay: Hepatitis C polymerase inhibition, BB7 sequence; type: biochemical; settings: Table 1B
[2] = target: T1, NS5B from the BK strain (genotype 1b) (Hepatitis C virus genotype 1b, UniProt P26663); assay: Hepatitis C polymerase inhibition, NS5B BK strain, 33P-GTP filter assay; type: biochemical; settings: Table 1B; NS5B BK strain; read-out: BK IC50
T1 construct: NS5B from the BK strain (genotype 1b) is expressed in E. coli as a protein in which the 21 C-terminal amino acids are replaced; made in house; host or cells: E. coli
T1 sequence (P26663 2420-2989): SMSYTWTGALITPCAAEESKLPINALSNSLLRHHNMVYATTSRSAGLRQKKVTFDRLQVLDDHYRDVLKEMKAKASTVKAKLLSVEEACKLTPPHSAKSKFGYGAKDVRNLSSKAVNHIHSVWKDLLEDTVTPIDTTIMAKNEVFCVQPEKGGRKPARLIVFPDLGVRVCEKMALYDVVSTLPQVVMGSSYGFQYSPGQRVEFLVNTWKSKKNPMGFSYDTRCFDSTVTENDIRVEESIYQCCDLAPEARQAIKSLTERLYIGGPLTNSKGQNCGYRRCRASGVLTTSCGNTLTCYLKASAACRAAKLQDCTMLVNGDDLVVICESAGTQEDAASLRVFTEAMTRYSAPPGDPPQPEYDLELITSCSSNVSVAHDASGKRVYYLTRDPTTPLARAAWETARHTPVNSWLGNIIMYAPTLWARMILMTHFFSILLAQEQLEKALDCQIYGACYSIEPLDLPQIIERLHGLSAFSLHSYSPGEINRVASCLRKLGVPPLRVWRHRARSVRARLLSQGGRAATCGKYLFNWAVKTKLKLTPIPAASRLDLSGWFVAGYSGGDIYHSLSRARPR
In short: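 E. coli-expressed NS5B (BK, genotype 1b) with the 21 C-terminal residues replaced by a linker-His6 tag was preincubated with compound for 15 min at room temperature. It then extended a hairpin-primed heteropolymeric RNA (~3 nM, ~760 nt product) with α-[33P]-GTP for 2 h at 22–25° C. The reaction was stopped with EDTA, and incorporated label was counted on filters.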

Sequence of BB7 (RNA-dependent RNA polymerase hepatitis C virus protein sequence derived from HCV replicon) (Q9WMX2 2420-3010): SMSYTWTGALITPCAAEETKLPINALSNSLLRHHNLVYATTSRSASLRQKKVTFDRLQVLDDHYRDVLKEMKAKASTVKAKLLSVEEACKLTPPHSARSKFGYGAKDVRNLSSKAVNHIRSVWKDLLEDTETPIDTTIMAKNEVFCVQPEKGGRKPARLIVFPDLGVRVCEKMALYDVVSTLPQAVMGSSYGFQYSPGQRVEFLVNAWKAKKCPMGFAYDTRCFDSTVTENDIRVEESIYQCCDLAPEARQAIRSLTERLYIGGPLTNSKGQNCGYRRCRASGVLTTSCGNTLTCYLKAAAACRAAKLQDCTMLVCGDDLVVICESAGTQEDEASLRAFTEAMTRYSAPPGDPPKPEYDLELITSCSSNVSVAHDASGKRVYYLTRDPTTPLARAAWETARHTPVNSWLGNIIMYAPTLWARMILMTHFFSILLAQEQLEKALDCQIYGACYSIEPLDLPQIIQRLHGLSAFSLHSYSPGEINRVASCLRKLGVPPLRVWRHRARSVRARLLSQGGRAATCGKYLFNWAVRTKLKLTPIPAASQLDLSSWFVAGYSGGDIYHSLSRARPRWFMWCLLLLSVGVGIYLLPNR

SMILES	IC50 [1] [µM]	IC50 [2] [µM]
O=C(O)CC1(C2CCC2)OCCc2c1[nH]c1ccc(Cl)c(Cl)c21 (stereo not drawn) [Example 235, (5,6-dichloro-1-cyclobutyl-1,3,4,9-tetrahydropyrano[3,4-b]indol-1-yl)acetic acid]	5.4	5.2
O=C(O)CC1(C2CCCC2)OCCc2c1[nH]c1ccc(Cl)c(Cl)c21 (stereo not drawn) [Example 236, (5,6-dichloro-1-cyclopentyl-1,3,4,9-tetrahydropyrano[3,4-b]indol-1-yl)acetic acid]	9.6	10
COCC1(CC(=O)O)OCCc2c1[nH]c1ccc(Cl)c(Cl)c21 (stereo not drawn) [Example 237, (5,6-Dichloro-1-methoxymethyl-1,3,4,9-tetrahydropyrano[3,4-b]indol-1-yl)acetic acid]	> 24	> 27
COCCC1(CC(=O)O)OCCc2c1[nH]c1ccc(Cl)c(Cl)c21 (stereo not drawn) [Example 238, [5,6-dichloro-1-(2-methoxyethyl)-1,3,4,9-tetrahydropyrano[3,4-b]indol-1-yl]acetic acid]	> 30	19
O=C(O)CC1(CCC(F)(F)F)OCCc2c1[nH]c1ccc(Cl)c(Cl)c21 (stereo not drawn) [Example 239, [5,6-dichloro-1-(3,3,3-trifluoropropyl)-1,3,4,9-tetrahydropyrano[3,4-b]indol-1-yl]acetic acid]	5.4	4.6
CCCC1(CC(=O)O)OCCc2c1[nH]c1cc(Cl)c(Cl)cc21 (stereo not drawn) [Example 240, (6,7-dichloro-1-propyl-1,3,4,9-tetrahydropyrano[3,4-b]indol-1-yl)acetic acid]	18	8.9
CCC1(CC(=O)O)OCCc2c1[nH]c1c(Cl)ccc(Cl)c21 (stereo not drawn) [Example 243, (5,8-dichloro-1-ethyl-1,3,4,9-tetrahydropyrano[3,4-b]indol-1-yl)acetic acid]	10	6.3
N#CCCCC1(CC(=O)O)OCCc2c1[nH]c1c(Cl)ccc(Cl)c21 (stereo not drawn) [Example 244, [5,8-dichloro-1-(3-cyanopropyl)-1,3,4,9-tetrahydropyrano[3,4-b]indol-1-yl)acetic acid]	1.8	0.3
O=C(O)CC1(CCC(F)(F)F)OCCc2c1[nH]c1c(Cl)ccc(Cl)c21 (stereo not drawn) [Example 245, [5,8-dichloro-1-(3,3,3-trifluoropropyl)-1,3,4,9-tetrahydropyrano[3,4-b]indol-1-yl]acetic acid]	0.74	0.4
COCC1(CC(=O)O)OCCc2c1[nH]c1c(Cl)ccc(Cl)c21 (stereo not drawn) [Example 246, (5,8-dichloro-1-methoxymethyl-1,3,4,9-tetrahydropyrano[3,4-b]indol-1-yl)acetic acid]	> 30	> 30
COCCC1(CC(=O)O)OCCc2c1[nH]c1c(Cl)ccc(Cl)c21 (stereo not drawn) [Example 247, [5,8-dichloro-1-(2-methoxyethyl)-1,3,4,9-tetrahydropyrano[3,4-b]indol-1-yl]acetic acid]	18	> 24
CCOCC1(CC(=O)O)OCCc2c1[nH]c1c(Cl)ccc(Cl)c21 (stereo not drawn) [Example 248, (5,8-dichloro-1-ethoxymethyl-1,3,4,9-tetrahydropyrano[3,4-b]indol-1-yl)acetic acid]	> 30	> 30
CSCC1(CC(=O)O)OCCc2c1[nH]c1c(Cl)ccc(Cl)c21 (stereo not drawn) [Example 249, (5,8-dichloro-1-methylthiomethyl-1,3,4,9-tetrahydropyrano[3,4-b]indol-1-yl)acetic acid]	12	7
CCSCC1(CC(=O)O)OCCc2c1[nH]c1c(Cl)ccc(Cl)c21 (stereo not drawn) [Example 250, (5,8-dichloro-1-ethylthiomethyl-1,3,4,9-tetrahydropyrano[3,4-b]indol-1-yl)acetic acid]	3.9	3.7
C=CCCC1(CC(=O)O)OCCc2c1[nH]c1c(Cl)ccc(Cl)c21 (stereo not drawn) [Example 251, [5,8-dichloro-1-(3-butenyl)-1,3,4,9-tetrahydropyrano[3,4-b]indol-1-yl]acetic acid]	3.5	1.7
O=C(O)CC1(C2CC2)OCCc2c1[nH]c1c(Cl)ccc(Cl)c21 (stereo not drawn) [Example 252, (5,8-dichloro-1-cyclopropyl-1,3,4,9-tetrahydropyrano[3,4-b]indol-1-yl)acetic acid]	19	7.3
O=C(O)CC1(C2CCC2)OCCc2c1[nH]c1c(Cl)ccc(Cl)c21 (stereo not drawn) [Example 253, (5,8-dichloro-1-cyclobutyl-1,3,4,9-tetrahydropyrano[3,4-b]indol-1-yl)acetic acid]	0.7	0.35
O=C(O)CC1(C2CCCC2)OCCc2c1[nH]c1c(Cl)ccc(Cl)c21 (stereo not drawn) [Example 254, (5,8-dichloro-1-cyclopentyl-1,3,4,9-tetrahydropyrano[3,4-b]indol-1-yl)acetic acid]	5.8	3.3
O=C(O)CC1(C2CCCCC2)OCCc2c1[nH]c1c(Cl)ccc(Cl)c21 (stereo not drawn) [Example 255, (5,8-dichloro-1-cyclohexyl-1,3,4,9-tetrahydropyrano[3,4-b]indol-1-yl)acetic acid]	15	> 30
CCC(C)C1(CC(=O)O)OCCc2c1[nH]c1c(Cl)ccc(Cl)c21 (stereo not drawn) [Example 256, [5,8-dichloro-1-(1-methylpropyl)-1,3,4,9-tetrahydropyrano[3,4-b]indol-1-yl]acetic acid]	0.34	0.15
O=C(O)CC1(CC2CC2)OCCc2c1[nH]c1c(Cl)ccc(Cl)c21 (stereo not drawn) [Example 257, (5,8-dichloro-1-cyclopropylmethyl-1,3,4,9-tetrahydropyrano[3,4-b]indol-1-yl)acetic acid]	2.9	1.9
O=C(O)CC1(CC2CCCC2)OCCc2c1[nH]c1c(Cl)ccc(Cl)c21 (stereo not drawn) [Example 258, (5,8-dichloro-1-cyclopentylmethyl-1,3,4,9-tetrahydropyrano[3,4-b]indol-1-yl)acetic acid]	14	9.4
Cc1ccc(Cl)c2c3c([nH]c12)C(CC(=O)O)(C1CCC1)OCC3 (stereo not drawn) [Example 259, (5-chloro-1-cyclobutyl-8-methyl-1,3,4,9-tetrahydropyrano[3,4-b]indol-1-yl)acetic acid]	1.6	0.5
CCCC1(CC(=O)O)OCCc2c1[nH]c1c(C)ccc(Cl)c21 (stereo not drawn) [Example 260, (5-chloro-8-methyl-1-propyl-1,3,4,9-tetrahydropyrano[3,4-b]indol-1-yl)acetic acid]	1.2	0.4
CCCC1(CC(=O)O)OCCc2c1[nH]c1c(Cl)ccc(C)c21 (stereo not drawn) [Example 262, (8-chloro-5-methyl-1-propyl-1,3,4,9-tetrahydropyrano[3,4-b]indol-1-yl)acetic acid]	8.3	2.7
O=C(O)CC1(CCC(F)(F)F)OCCc2c1[nH]c1c(Cl)ccc(C(F)(F)F)c21 (stereo not drawn) [Example 263, [8-chloro-5-trifluoromethyl-1-(3,3,3-trifluoropropyl)-1,3,4,9-tetrahydropyrano[3,4-b]indol-1-yl]acetic acid]	3.2	1.3
COCCC1(CC(=O)O)OCCc2c1[nH]c1c(Cl)ccc(C(F)(F)F)c21 (stereo not drawn) [Example 265, [8-chloro-1-(2-methoxyethyl)-5-trifluoromethyl-1,3,4,9-tetrahydropyrano[3,4-b]indol-1-yl]acetic acid]	22	20
